# Where two headings read alike, the source gives them in different places.
# Legend:
# [1] = test system: Streptococcus mutans (DSM 20523, ATCC 25175); experiment: Minimum inhibitory concentration (MIC), DIN 58940-8 micro dilution method; format: cell-based; conditions: for MIC: Streptococcus mutans
# Method: (§1) MIC data were evaluated based on DIN 58940-8 micro dilution method. For the experiments three relevant bacteria occurring in the oral biofilm were selected: Streptococcus mutans (DSM 20523, ATCC 25175), Porphyromonas gingivalis (DSM 20709, ATCC33277), and Prevotella intermedia (DSM 20706, ATCC25611).
# (§2) All test organisms were cultivated in suitable complex medium and under anaerobic and/or microaerophilic conditions. Every test substance was applied as technical triplicate on a 96-microtiter plate in a total volume of 300 μL per well. The inoculum was directly transferred from a glycerin stock solution or from a freshly prepared preculture. Therefore 15 mL reagent tubes were filled with specific complex growth medium and inoculated with skim milk stocks of single strains. The incubation was done at 37° C. up to 48 h until an OD620>0.1-1.0. Suspensions were controlled microscopically. In both cases the bacteria were transferred and diluted to fresh complex medium on a 96 well plate.
# (§3) Test substances were either the pure materials or mixtures. The mixtures contain a cooling compound and an aroma component according to claims. Further these effective building blocks can be included in an aroma composition. Therefore, nature identical (synthetic) bases (base nature identical A/B) and/or natural basic formulations (base natural A/B) can be added.
# (§4) The mixtures contained either Carvacrol (synthetic material) or the natural oregano oil with a typical Carvacrol content in the range of 50-80%.
# (§5) Test substances were 100-fold solved in dimethyl sulfoxide (DMSO) and diluted directly on the 96 well plate. As […] farnesol and/or triclosan were applied in appropriate concentrations from 1 to 100 ppm. An untreated medium control was applied as growth control. The incubation of the test plates was done for 16-24 h at 37° C. At the end of the experiment, growth was determined photometrically by detecting OD620 values using Sunrise Photometer (TECAN, Austria). Mean values of triplicates were calculated and normalized with blank values (growth medium with or without test substances). The growths of treated wells were evaluated in relation to the growth control. Minimum inhibition concentrations (MIC) were defined as minimal concentration (in ppm) that causes a complete inhibition of bacterial growth.
# (§6) Synergies were calculated using the following formula. The formula can be modified according to the number of components per mixture. MIC stands for minimum inhibitory concentration with the dimension of parts per million [ppm].
# (§7) [formula] • MICmix=MIC value of mixture [ppm] • PA=Percentage of component A [%] • MIC A=MIC value of component A [ppm] • PB=Percentage of component B [%] • MIC B=MIC value of component B [ppm] A synergism is given if the resulting value is below 1.
# [2] = test system: Porphyromonas gingivalis (DSM 20709, ATCC33277); experiment: as above; format: cell-based; conditions: for MIC: Porphyromonas gingivalis
# Method: as §1, §2, §3, §4, §5, §6, §7
# [3] = test system: Prevotella intermedia (DSM 20706, ATCC25611); experiment: as above; format: cell-based; conditions: for MIC: Prevotella intermedia
# Method: as §1, §2, §3, §4, §5, §6, §7
# [4] = test system: oral biofilm; experiment: Ex vivo biofilm model (Calgary Biofilm Device, FDA hydrolysis); format: cell-based, human; conditions: compared to untreated control biofilm (100%); treatment 4 times within 2 days for 2 min at 37° C.
# Method: The experiment was developed following the method described in WO2018/033211 and Kistler et al (Kistler et al. 2015).
# Up to 50 subjects were recruited for saliva donation. Participants were between 18 and 65 years old and medically healthy. Subjects who had taken antibiotics, ate antimicrobial food such as garlic within last 24 h and/or had suffer from any systemic conditions that may affected their immune or inflammatory status, were excluded from the study. Fresh morning saliva from all donors were selected and pooled. All volunteers were asked to refrain from drinking, eating, or brushing their teeth bevor donating by expectoration into sterile universal tubes.
# The Calgary Biofilm Device (CBD) was originally developed for medical usage. It is commercially available as MBEC (Minimum Biofilm Eradication Concentration) Biofilm Inoculator and it is suitable as a basis for biofilm research (Kistler et al. 2015; Ceri et al. 1999). […]
# Stock solutions of all test substances were prepared in dimethylsulfoxide (DMSO). […] At the end the pegs were washed again, and microbial activity was quantified photometrically by fluorescein diacetate (FDA) hydrolysis. FDA is converted into fluorescein by protease, lipase, and esterase activities in the biofilm, thus the quantification of fluorescein represents the activity of the biofilm.
# [5] = S. mutans, component alone, read-out: MIC B (MIC value of component B)
# [6] = read-out: MIC A (MIC value of component A)
molecule,measurement,setting,value
CC(O)COC(=O)O[C@@H]1C[C@H](C)CC[C@H]1C(C)C (stereo partly shown) [Menthyl propylene glycol carbonate],MIC B (MIC value of component B),"[1]; S. mutans, component alone",125 ppm
(−)-Menthyl propylene glycol carbonate,MIC B (MIC value of component B),"[2]; P. gingivalis, component alone",125 ppm
"CC(C)[C@@H]1CC[C@@H](C)C[C@H]1OCC(O)CO (stereo partly drawn) [3-(−)-Menthoxy)propane-1,2-diol]",MIC,[1]; [5],500 µg/mL
Cc1ccc(C(C)C)cc1O [Carvacrol],MIC,[2]; [6],250 µg/mL
same,MIC,[3]; [6],250 µg/mL
same,MIC,[1]; [6],250 µg/mL
same,relative biofilm activity after treatment (FIG. 1),[4],concentration dependent oral biofilm reduction
"CC1CCC(C(C)C)C2(C1)OCC(CO)O2 [D,L-Menthone glyceryl ketal]",MIC B (MIC value of component B),"[2]; P. gingivalis, component alone",250 ppm
same,MIC B (MIC value of component B),"[3]; P. intermedia, component alone",250 ppm
same,MIC B (MIC value of component B),"[1]; S. mutans, component alone",500 ppm
CC(C)[C@@H]1CC[C@@H](C)C[C@H]1OC(=O)[C@@H](C)O (stereo in doubt) [Menthyl lactate],MIC,"[2]; P. gingivalis, component alone, read-out: MIC B (MIC value of component B)",125 µg/mL
same,MIC,"[3]; P. intermedia, component alone, read-out: MIC B (MIC value of component B)",125 µg/mL
same,MIC,[1]; [5],250 µg/mL

# Reference: US20250352444A1, “Antimicrobial mixtures” (Symrise AG, priority 2022, published 2025)
